Assays:
[1] = Liquid; for mass density: 101.3 kPa, Vibrating tube method; for vapor or sublimation pressure: Ebulliometric method (Recirculating still)
[2] = refractive index (Na D-line) (dimensionless); settings: 298.15 K; 101.33 kPa; Liquid; Standard Abbe refractometry
[3] = xn = mol fraction of the nth substance listed; settings: 101 kPa, Liquid, Vibrating tube method, x2 = 0

CCCCCCC [heptane]
[1]
Settings | mass density [kg/m3] | vapor or sublimation pressure [kPa]
288.15 K | 688.16 | –
298.15 K | 679.62 | –
308.15 K | 670.96 | –
318.15 K | 662.33 | –
328.15 K | 653.61 | –
346.23 K | – | 45
347.76 K | – | 47.5
349.29 K | – | 50
350.7 K | – | 52.5
352.07 K | – | 55
353.41 K | – | 57.5
354.69 K | – | 60
355.94 K | – | 62.5
357.14 K | – | 65
358.32 K | – | 67.5
359.45 K | – | 70
360.54 K | – | 72.5
361.61 K | – | 75
362.66 K | – | 77.5
363.68 K | – | 80
364.71 K | – | 82.5
365.65 K | – | 85
366.61 K | – | 87.5
367.53 K | – | 90
368.42 K | – | 92.5
369.32 K | – | 95
370.19 K | – | 97.5
371.07 K | – | 100
371.38 K | – | 101.32
371.51 K | – | 101.32
372.72 K | – | 105
374.31 K | – | 110
375.85 K | – | 115
377.34 K | – | 120
378.77 K | – | 125
380.18 K | – | 130
381.52 K | – | 135
382.84 K | – | 140
384.13 K | – | 145
385.36 K | – | 150
386.6 K | – | 155
387.78 K | – | 160
388.94 K | – | 165
390.08 K | – | 170
391.17 K | – | 175
392.25 K | – | 180
393.3 K | – | 185
394.34 K | – | 190
395.37 K | – | 195
396.37 K | – | 200
397.35 K | – | 205
398.29 K | – | 210
399.24 K | – | 215
400.17 K | – | 220
401.07 K | – | 225
401.97 K | – | 230
402.84 K | – | 235
403.72 K | – | 240
404.57 K | – | 245
405.42 K | – | 250
406.25 K | – | 255
407.05 K | – | 260
407.87 K | – | 265
408.65 K | – | 270
409.42 K | – | 275
410.22 K | – | 280

Settings | refractive index
[2] | 1.3853

CCCCCCC [heptane] + CCCC(=O)OC
[3]
Settings | mass density [kg/m3]
288.15 K | 688.16
298.15 K | 679.62
308.15 K | 670.96
318.15 K | 662.33
328.15 K | 653.61

CCCCCCC [heptane] + CCCC(=O)OCC
[3]
Settings | mass density [kg/m3]
288.15 K | 688.16
298.15 K | 679.62
308.15 K | 670.96
318.15 K | 662.33
328.15 K | 653.61
